Source: patent US10117878B2, “Ligands for nematode nuclear receptors and uses thereof” (priority 2006, dated 2018)
pEC50: −log10 of the molar value.

What was measured:
[1] = test system: daf-9(dh6) nulls; test: Rescue assay with pure steroids, daf-9(dh6) nulls; assay type: in vivo, C. elegans; settings: for effect of 26-hydroxy-4-cholesten-3-one on daf-9 nulls (in words): concentrations as high as 33 μM
[2] = test system: daf-9(dh6) null worms; test: Rescue of daf-9 null worms by extracts of sterols incubated with DAF-9 or control microsomes; settings: for complete rescue of Daf-c and Mig phenotypes, animals tested: DAF-9 microsome reactions (100 μM sterol) diluted 8-fold; for effect on daf-9 animals, DAF-9 microsomes (in words) / rescue of the Daf-c phenotypes: extracts from DAF-9 microsomes incubated with 100 μM sterol; for effect on daf-9 phenotypes, control microsomes (in words): extracts from control (hOR only) microsomes incubated with 100 μM sterol
Experimental: Microsomes containing hOR or hOR and Daf-9 generated from Sf9 cells were thawed on ice and added to a final concentration of 0.5 mg/mL in 0.1M potassium phosphate buffer in the presence of an NADPH regenerating system (50 U/mL DL-isocitrate dehydrogenase, 0.1 M isocitrate and 0.1 M MgCl2). Substrates were added from stock solutions at 10^−2 M to a final concentration of 100 μM (final reaction volume of 0.5 mL). The mixture was preincubated for 3 min at 37° C. and the reaction was initiated by the addition of NADPH (1 mM). After 16 hrs, the reactions were stopped by extraction with 2×2 mL of methyl-tert-butyl-ether and the top layers were combined and dried under nitrogen. In some experiments, 0.5 μg of 1,4-cholestadiene-3-one was added as an internal standard for the extraction.
Individual 3-keto sterols and their respective 3β-hydroxy sterols were incubated with Sf9 cell microsomes co-expressing DAF-9 and the human P450 oxidoreductase (hOR). As a control, microsomes from cells expressing hOR alone were used.

[3] = biological target: DAF-12 ligand binding domain (Caenorhabditis elegans, UniProt G5EFF5)
DAF-12 ligand binding domain, sequence (G5EFF5 507-753): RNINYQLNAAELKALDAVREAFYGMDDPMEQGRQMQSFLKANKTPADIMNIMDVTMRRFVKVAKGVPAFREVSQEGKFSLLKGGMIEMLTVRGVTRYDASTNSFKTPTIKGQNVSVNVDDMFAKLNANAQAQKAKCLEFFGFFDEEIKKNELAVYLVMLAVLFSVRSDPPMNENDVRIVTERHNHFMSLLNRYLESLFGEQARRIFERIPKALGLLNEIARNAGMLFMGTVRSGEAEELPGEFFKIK

[4] = biological target: T1, GAL4-DAF-12 (Caenorhabditis elegans, UniProt G5EFF5); test: Co-transfection assay: GAL4-DAF-12 and GAL4-responsive luciferase reporter in HEK293 cells; assay type: cell-based, C. elegans; settings: for DAF-9 independent activation of GAL4-DAF-12 (in words): 10 μM sterol, without DAF-9; for Activation of DAF-12, initial compound screen: bile acids 10 μM with IBAT co-transfected, assays in the presence or absence of co-transfected DAF-9
T1 construct: 184-754aa (DAF-12); expressed in transfected cells; host or cells: HEK293
T1 sequence (G5EFF5 184-753): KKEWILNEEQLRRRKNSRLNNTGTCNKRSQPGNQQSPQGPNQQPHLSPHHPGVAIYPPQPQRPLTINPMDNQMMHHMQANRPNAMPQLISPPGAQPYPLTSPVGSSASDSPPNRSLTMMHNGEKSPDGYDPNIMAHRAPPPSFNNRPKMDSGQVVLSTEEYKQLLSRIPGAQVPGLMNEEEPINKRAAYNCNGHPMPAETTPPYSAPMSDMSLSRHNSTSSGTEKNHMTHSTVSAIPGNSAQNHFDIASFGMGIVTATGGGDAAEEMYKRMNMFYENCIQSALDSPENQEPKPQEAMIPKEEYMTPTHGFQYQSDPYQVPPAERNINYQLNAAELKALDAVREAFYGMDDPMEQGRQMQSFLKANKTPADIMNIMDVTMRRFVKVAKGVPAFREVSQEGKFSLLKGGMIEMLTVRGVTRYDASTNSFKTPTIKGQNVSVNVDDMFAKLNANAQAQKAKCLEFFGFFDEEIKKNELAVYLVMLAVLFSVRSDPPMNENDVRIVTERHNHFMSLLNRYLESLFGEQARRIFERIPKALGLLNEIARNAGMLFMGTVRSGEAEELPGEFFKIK

[5] = test system: DAF-12 in the presence of DAF-9; test: Co-transfection assay: GAL4-DAF-12 reporter in HEK293 cells with co-transfected DAF-9; assay type: cell-based, C. elegans; settings: 10 μM sterol; fold induction of RLU compared to ethanol control
Experimental: To screen for sterol-derived ligands of DAF-12 a co-transfection assay in HEK293 cells was performed using a chimeric GAL4-DAF-12 receptor and a GAL4-responsive luciferase reporter. […] Our initial compound screen consisted of bile acids and known vertebrate steroid and endocrine hormones as these compounds are ligands for PXR, VDR and LXR, the closest vertebrate homologs of DAF-12 (Antebi et al., 2000; Mooijaart et al., 2005).

[6] = biological target: T2, human CYP27A1 (Homo sapiens, UniProt Q02318); test: Co-transfection of HEK293 cells with GAL4-DAF-12, human CYP27A1 and bovine adrenodoxin; assay type: cell-based; settings: sterol 25 μM; bovine adrenodoxin co-transfected
T2 construct: expressed in transfected cells; host or cells: HEK293
T2 sequence (Q02318 34-531): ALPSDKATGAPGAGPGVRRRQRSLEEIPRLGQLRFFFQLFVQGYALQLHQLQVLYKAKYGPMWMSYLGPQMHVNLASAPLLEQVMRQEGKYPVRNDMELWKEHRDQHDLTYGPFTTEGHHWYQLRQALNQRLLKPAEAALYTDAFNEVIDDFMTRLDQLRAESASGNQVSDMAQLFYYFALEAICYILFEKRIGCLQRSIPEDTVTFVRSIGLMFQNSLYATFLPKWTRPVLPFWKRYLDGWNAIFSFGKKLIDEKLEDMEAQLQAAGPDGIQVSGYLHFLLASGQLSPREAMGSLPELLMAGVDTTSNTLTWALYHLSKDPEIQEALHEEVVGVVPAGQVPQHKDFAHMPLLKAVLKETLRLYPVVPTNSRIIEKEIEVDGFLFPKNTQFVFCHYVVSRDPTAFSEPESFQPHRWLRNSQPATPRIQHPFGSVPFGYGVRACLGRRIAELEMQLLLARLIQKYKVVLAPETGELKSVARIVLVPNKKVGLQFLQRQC
Experimental: (§1) Therefore, the ability of CYP27A1 to metabolize 4-cholesten-3-one into a DAF-12 activator was tested.

[7] = biological target: T3, mouse CYP27A1 (Mus musculus, UniProt Q9DBG1); test: Co-transfection of HEK293 cells with GAL4-DAF-12, mouse CYP27A1 and bovine adrenodoxin; assay type: cell-based; settings: sterol 25 μM; bovine adrenodoxin co-transfected
T3 construct: expressed in transfected cells; host or cells: HEK293
T3 sequence (Q9DBG1 33-533): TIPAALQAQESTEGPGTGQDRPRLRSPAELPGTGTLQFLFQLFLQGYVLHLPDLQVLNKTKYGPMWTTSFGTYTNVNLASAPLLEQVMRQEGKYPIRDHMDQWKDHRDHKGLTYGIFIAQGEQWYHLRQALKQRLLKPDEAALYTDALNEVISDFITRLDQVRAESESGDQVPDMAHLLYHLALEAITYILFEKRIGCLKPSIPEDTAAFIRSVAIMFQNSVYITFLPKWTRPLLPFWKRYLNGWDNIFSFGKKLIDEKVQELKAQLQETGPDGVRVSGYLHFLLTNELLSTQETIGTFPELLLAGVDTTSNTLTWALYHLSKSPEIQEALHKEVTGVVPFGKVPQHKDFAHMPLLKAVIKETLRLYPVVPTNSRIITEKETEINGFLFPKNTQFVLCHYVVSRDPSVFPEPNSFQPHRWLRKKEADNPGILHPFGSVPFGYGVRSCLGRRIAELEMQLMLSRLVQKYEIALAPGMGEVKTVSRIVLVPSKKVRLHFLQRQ
Experimental: as §1

[8] = test system: DAF-12 homolog with co-transfected DAF-9; test: Activation of the Anycolostoma ceylancium DAF-12 homolog with co-transfection of DAF-9; assay type: cell-based
Text: This invention contemplates the development of strategies against nematodes, including but not limited to parasitic nematodes. Many parasitic nematodes contain homologs of the orphan nuclear receptor DAF-12, which, as described above, is a key regulator of reproductive development in C. elegans. See, e.g., Siddiqui et al. (2000). In accordance with the present invention, therefore, ligands that are operative in the DAF-9/DAF-12 pathway in C. elegans will affect the life cycles of parasitic nematodes similarly. The inventors have discovered in Anycolostoma ceylancium, for example, a DAF-12 homolog that is activated by DAF-12 ligands, identified pursuant to this invention.

[9] = test system: C. elegans; settings: in vivo; cited from earlier work
[10] = control microsome reactions (100 μM sterol) diluted 8-fold
[11] = extracts from DAF-9 microsomes incubated with sterol

C[C@@H](CO)CCC[C@@H](C)[C@H]1CC[C@H]2[C@@H]3CCC4=CC(=O)CC[C@]4(C)[C@H]3CC[C@]12C [(25R),26-hydroxy-4-cholesten-3-one]
effect of 26-hydroxy-4-cholesten-3-one on daf-9 nulls (in words) [1]: had no effect
complete rescue of Daf-c and Mig phenotypes, animals tested [2]: 100%
daf-9 rescue by extracts from control microsome incubations (in words) [2, 10]: had no biological effect
increase in binding units compared to vehicle control ([3]; 1 μM sterol): 2 fold
pEC50 [4]: 5.70
DAF-9 independent activation of GAL4-DAF-12 (in words) [4]: strongly active

C[C@H](CCC(=O)O)[C@H]1CC[C@H]2[C@@H]3CC(=O)[C@@H]4C[C@H](O)CC[C@]4(C)[C@H]3CC[C@]12C [6-keto-lithocholic acid]
Activation of DAF-12, initial compound screen [4]: No other bile acids or endocrine hormones tested activated DAF-12

CC(C)CCC[C@@H](C)[C@H]1CC[C@H]2C3=CC[C@H]4[C@H](C)C(=O)CC[C@]4(C)[C@H]3CC[C@]12C [lophenone]
activation of DAF-12 upon co-transfection with DAF-9 [5]: 103 fold
effect on daf-9 animals, DAF-9 microsomes (in words) [2]: resulted in rescue of Daf-c, none of these animals were normal
animals that failed to enter dauer, had molting defects, or were dead [2, 11]: 42%
animals that were Mig [2, 11]: 58%
effect on daf-9 phenotypes, control microsomes (in words) [2]: dependent on DAF-9
DAF-9 independent activation of GAL4-DAF-12 (in words) [4]: required the presence of DAF-9

CC(C)CCC[C@@H](C)[C@H]1CC[C@H]2[C@@H]3CCC4=CC(=O)CC[C@]4(C)[C@H]3CC[C@]12C [4-cholesten-3-one]
activation of GAL4-DAF-12 with co-transfected human CYP27A1 [6]: potent activation
activation of DAF-12 upon co-transfection with DAF-9 [5]: 109 fold
effect on daf-9 animals, DAF-9 microsomes (in words) [2]: indistinguishable from wild-type adults
rescue of the Daf-c phenotypes [2]: 100%
effect on daf-9 phenotypes, control microsomes (in words) [2]: did not rescue any daf-9 phenotypes
binding (in words) ([3]; 1 μM sterol): no significant binding
activation of GAL4-DAF-12 with co-transfected mouse CYP27A1 [7]: potent activation
DAF-9 independent activation of GAL4-DAF-12 (in words) [4]: required the presence of DAF-9

C[C@H](CCC(=O)O)[C@H]1CC[C@H]2[C@@H]3CC[C@@H]4CC(=O)CC[C@]4(C)[C@H]3CC[C@]12C [3-keto-lithocholic acid]
Activation of DAF-12, initial compound screen [4]: weak, micromolar activator of DAF-12 independent of DAF-9

C[C@H](CCC(=O)O)[C@H]1CC[C@H]2[C@@H]3C(=O)C[C@@H]4C[C@H](O)CC[C@]4(C)[C@H]3CC[C@]12C [7-keto-lithocholic acid]
Activation of DAF-12, initial compound screen [4]: No other bile acids or endocrine hormones tested activated DAF-12

C[C@]12C[C@H](O)[C@H]3[C@@H](CCC4=CC(=O)CC[C@@]43C)[C@@H]1CC[C@@H]2C(=O)CO [corticosterone]
Activation of DAF-12, initial compound screen [4]: No other bile acids or endocrine hormones tested activated DAF-12

C[C@H](CO)CCC[C@@H](C)[C@H]1CC[C@H]2[C@@H]3CCC4=CC(=O)CC[C@]4(C)[C@H]3CC[C@]12C [(25S),26-hydroxy-4-cholesten-3-one]
effect of 26-hydroxy-4-cholesten-3-one on daf-9 nulls (in words) [1]: still exhibit Mig and/or molting defects, and sterility
worms that bypass dauer ([1]; n>60): 93%
complete rescue of Daf-c and Mig phenotypes, animals tested [2]: 100%
daf-9 rescue by extracts from control microsome incubations (in words) [2, 10]: only an incomplete rescue
molt defects [2, 10]: 10%
sterile Mig adults [2, 10]: 75%
binding (in words) ([3]; 1 μM sterol): no significant binding
pEC50 [4]: 6.00
DAF-9 independent activation of GAL4-DAF-12 (in words) [4]: strongly active

C[C@H](CCC(=O)O)[C@H]1CC[C@H]2[C@@H]3[C@H](O)C[C@@H]4C[C@H](O)CC[C@]4(C)[C@H]3C[C@H](O)[C@]12C [cholic acid]
Activation of DAF-12, initial compound screen [4]: No other bile acids or endocrine hormones tested activated DAF-12

CC(C)CCC[C@@H](C)[C@H]1CC[C@H]2C3=CC[C@H]4CC(=O)CC[C@]4(C)[C@H]3CC[C@]12C [lathosterone]
activation of GAL4-DAF-12 with co-transfected human CYP27A1 [6]: had no effect
activation of the DAF-12 homolog with co-transfection of DAF-9 [8]: causes activation of this DAF-12 homolog
activation of DAF-12 upon co-transfection with DAF-9 [5]: 433 fold
effect on daf-9 animals, DAF-9 microsomes (in words) [2]: indistinguishable from wild-type adults
rescue of the Daf-c phenotypes [2]: 100%
effect on daf-9 phenotypes, control microsomes (in words) [2]: did not rescue any daf-9 phenotypes
ligand binding activity of DAF-9 microsomes incubated with sterol ([3]; 1:5000 dilution of DAF-9 microsomes incubated with 100 μM sterol): strong ligand binding activity
activation of GAL4-DAF-12 with co-transfected mouse CYP27A1 [7]: had no effect
DAF-9 independent activation of GAL4-DAF-12 (in words) [4]: required the presence of DAF-9

CC(C)CCC[C@@H](C)[C@H]1CC[C@H]2C3=CC[C@H]4C[C@@H](O)CC[C@]4(C)[C@H]3CC[C@]12C [lathosterol]
effect on daf-9 animals, DAF-9 microsomes (in words) [2]: exhibited the Mig phenotype and were sterile
rescue of the Daf-c phenotypes [2]: 83%
effect on daf-9 phenotypes, control microsomes (in words) [2]: no effect
effect on the nematode life cycle as the sole dietary sterol [9]: supported full reproductive growth

CC(=O)[C@H]1CC[C@H]2[C@@H]3CCC4=CC(=O)CC[C@]4(C)[C@H]3CC[C@]12C [progesterone]
Activation of DAF-12, initial compound screen [4]: No other bile acids or endocrine hormones tested activated DAF-12

C[C@]12CC[C@H]3[C@@H](CCC4=CC(=O)CC[C@@]43C)[C@@H]1CC[C@@H]2O [testosterone]
Activation of DAF-12, initial compound screen [4]: No other bile acids or endocrine hormones tested activated DAF-12

CC(C)(O)CC[C@@H](O)[C@](C)(O)[C@H]1CC[C@@]2(O)C3=CC(=O)[C@@H]4C[C@@H](O)[C@@H](O)C[C@]4(C)[C@H]3CC[C@]12C [20-hydroxyecdysone]
Activation of DAF-12, initial compound screen [4]: No other bile acids or endocrine hormones tested activated DAF-12

C=C1/C(=C\C=C2/CCC[C@]3(C)[C@@H]([C@H](C)CCCC(C)(C)O)CC[C@@H]23)C[C@@H](O)C[C@@H]1O [1,25-dihydroxyvitamin D3]
Activation of DAF-12, initial compound screen [4]: No other bile acids or endocrine hormones tested activated DAF-12

CC(C)CCC[C@@H](C)[C@H]1CC[C@H]2C3=CC[C@H]4[C@H](C)[C@@H](O)CC[C@]4(C)[C@H]3CC[C@]12C [lophenol]
effect on daf-9 animals, DAF-9 microsomes (in words) [2]: had no effect
effect on daf-9 phenotypes, control microsomes (in words) [2]: had no effect
effect on the nematode life cycle as the sole dietary sterol [9]: constitutively entered dauer diapause

CC(C)CCC[C@@H](C)[C@H]1CC[C@H]2[C@@H]3CC=C4C[C@@H](O)CC[C@]4(C)[C@H]3CC[C@]12C [cholesterol]
effect on daf-9 animals, DAF-9 microsomes (in words) [2]: no effect was seen
effect on daf-9 phenotypes, control microsomes (in words) [2]: no effect was seen

CC(=O)[C@H]1CC[C@H]2[C@@H]3CC=C4C[C@@H](O)CC[C@]4(C)[C@H]3CC[C@]12C [pregnenolone]
Activation of DAF-12, initial compound screen [4]: No other bile acids or endocrine hormones tested activated DAF-12

C[C@H](CCC(=O)O)[C@H]1CC[C@H]2[C@@H]3[C@H](O)C[C@@H]4C[C@H](O)CC[C@]4(C)[C@H]3CC[C@]12C [chenodeoxycholic acid]
Activation of DAF-12, initial compound screen [4]: No other bile acids or endocrine hormones tested activated DAF-12
